This note sets out measurements from US6890900B2, “Methods for treating or preventing diseases of the oral cavity” (Campina B.V., priority 2001, dated 2005).

Common to all, as to experiment: LF/GMP assay, viable plate count (pour plate) of broth culture
Holding throughout (type): cell-based
What all share (settings): for Log Difference: sialic acid 1,000 ppm vs 0 ppm, + = more growth

For assay [1], the system named is Actinobacillus haemophilus ATCC #43717. Here is the method: (§1) Bacterial strains used in this study were Pseudomonas aeruginosa ATCC #27853, Streptococcus mutans ATCC #33535, Streptococcus pyogenes ATCC #19615, and Actinobacillus haemophilus ATCC #43717 and an oral swab from a healthy adult. Bacteria were grown on blood/BHT media (Brain Heart Infusion Agar with protease peptone, sodium chloride, glucose, di-sodium phosphate, and agar, Oxoid, Hampshire England, Sheep's Blood) in the presence of 5% CO2 at 35° C. […] One ml of the appropriate bacterial dilution was taken using a sterile pipette and introduced into 8 ml of sterilized BHI broth. […] By pipette, 9 ml of broth was placed into medium test tubes as means of a control and 8 ml test tubes were prepared for the concentration tests). […] This solution was filtered through a 0.45 μm filter. […] To study the kinetics of LF/GMP binding, each strain of bacteria was taken separately with a sterile pipette and placed into an 8 ml BHI broth test tube, vortexed, and incubated in the presence of 1 ml of LF or GMP for 18-24 hours at 35° C. with 5% CO2. In the combination procedure, 0.5 ml of both LF and […] were taken as 1 ml inoculations. One mL of each bacterial strain, plus one mL of sialic acid solution (1,000 ppm) were inoculated into test tubes filled with 8 mL of BHI broth. Each test tube was vortexed, incubated for 24 hours at 35° C. with 5% CO2, and then pour plated in BHI agar to obtain a plate count. This technique was used to determine the density of living (viable) cells in inoculated broth cultures. It involves plating a bacterial sample and counting the resulting colonies after incubation. A serial dilution of the original broth was taken prior to plating. The serial dilution is necessary to reduce the density of organisms in order to create countable plates. Only plates containing between 25 and 250 colonies are considered countable. Cell densities are traditionally recorded as CFU (colony forming unit)/ml. […] Formula: [formula] The assays required the use of a pour plate technique. The pour plate technique adds a step to the conventional serial dilution. The 1 ml of dilution is added to a warm emulsion of dilute nutrient (BHI) agar to produce an agar overlay in the petri plates. After incubation, the bacterial growth covers the entire plate but individual cellular movement has been restricted by the soft agar overlay. Each colony formed is assumed to have originated from a single CFU. The plates were gently mixed, inverted, and incubated for 18-24 hour at 35° C. Using a control (one broth tube inoculated with a bacterial strain, but no LF), the effectiveness of LF was examined. Each test tube containing a specified amount of LF (50, 100, 250, 500, 1,000 ppm and 3000 ppm) was diluted and plates were poured. […] A. haemophilus, S. mutans, S. pyrogenes and an oral culture were tested at 35° C. Pseudomonas aeruginosa was tested at both room temperature and 35° C. with 5% CO2. This was done because P. aeruginosa is not strictly an oral pathogen. It is commonly found in the environment in various conditions. It can be found in the environment and oral intake can cause inflammation in the oral cavity. Most normal oral bacteria are only found in the mouth and are not taken in from outside factors. Therefore, P. aeruginosa is a threat in both temperature settings. […] (see Table 2).

Assay [2] has as its system Streptococcus mutans ATCC #33535. Here is the method:
as §1

Assay [3] concerns Pseudomonas aeruginosa ATCC #27853. Here is the method: Bacterial strains used in this study were Pseudomonas aeruginosa ATCC #27853, Streptococcus mutans ATCC #33535, Streptococcus pyogenes ATCC #19615, and Actinobacillus haemophilus ATCC #43717 and an oral swab from a healthy adult. Bacteria were grown on blood/BHT media (Brain Heart Infusion Agar with protease peptone, sodium chloride, glucose, di-sodium phosphate, and agar, Oxoid, Hampshire England, Sheep's Blood) in the presence of 5% CO2 at 35° C. Bacteria were harvested by swabbing inoculated growth plates after 24 hours and diluting the colonies in 9 ml of deionized water (DI water) until a suspension of 0.5 McFarland Turbidity Standard was reached using the nephelometer (McFarland Turbidity Meter). The 0.5 McFarland value is approximately equivalent to 1.0×10^8 organisms. One ml of the appropriate bacterial dilution was taken using a sterile pipette and introduced into 8 ml of sterilized BHI broth. (Preparation of BHI broth: 37 g+1,000 ml DI water, Difco Laboratories. By pipette, 9 ml of broth was placed into medium test tubes as means of a control and 8 ml test tubes were prepared for the concentration tests).
This solution was filtered through a 0.45 μm filter. […] Example for calculating 2,500 ppm dilution (1,000 ppm=0.1%): [formula] [formula] [formula] […]
One mL of each bacterial strain, plus one mL of sialic acid solution (1,000 ppm) were inoculated into test tubes filled with 8 mL of BHI broth. Each test tube was vortexed, incubated for 24 hours at 35° C. with 5% CO2, and then pour plated in BHI agar to obtain a plate count.
This technique was used to determine the density of living (viable) cells in inoculated broth cultures. It involves plating a bacterial sample and counting the resulting colonies after incubation. A serial dilution of the original broth was taken prior to plating. The serial dilution is necessary to reduce the density of organisms in order to create countable plates. Only plates containing between 25 and 250 colonies are considered countable. Cell densities are traditionally recorded as CFU (colony forming unit)/ml. By convention, when 1.0 ml is inoculated onto a plate, the dilution factor (DF) is recorded as tenfold greater. Formula: [formula]
The assays required the use of a pour plate technique. The pour plate technique adds a step to the conventional serial dilution. The 1 ml of dilution is added to a warm emulsion of dilute nutrient (BHI) agar to produce an agar overlay in the petri plates. After incubation, the bacterial growth covers the entire plate but individual cellular movement has been restricted by the soft agar overlay. Each colony formed is assumed to have originated from a single CFU. The plates were gently mixed, inverted, and incubated for 18-24 hour at 35° C. […]

[4] abbreviates: 24 hours at 35° C. with 5% CO2, listed as Sialic acid.
Setting [5] is: sialic acid 1,000 ppm, 24 hours at 35° C. with 5% CO2.
The mark [6] stands for this setting: sodium bicarbonate pH 4.36, column 1,000 ppm.

On to `CC(=O)N[C@H]1[C@H]([C@H](O)[C@H](O)CO)OC(O)(C(=O)O)C[C@@H]1O` (stereo partly drawn) [Sialic Acid, N-acetylneuraminic acid, reference compound], for which the “Log Difference” value was 0 log in assay [1] (24 hours at 35° C. with 5% CO2); “did not reduce the bacterial growth” in assay [1] (setting [4]); 0 log in assay [2] (24 hours at 35° C. with 5% CO2); “did not reduce the bacterial growth” in assay [2] (setting [4]); “^+1 log” in assay [3] (24 hours at 35° C. with 5% CO2); “increased the amount of bacterial growth by one log” in assay [3] (setting [4]). Further, the plate count in assay [1] (setting [5]) was 2.9 × 10^8; in assay [2] (setting [5]) it was 5.4 × 10^7; in assay [3] (setting [5]), 1.0 × 10^9.

Take `O=C([O-])O.[Na+]` [Sodium Bicarbonate, Sodium bicarbonate]: the pour plate count was 1.9 × 10^8 in assay [1] (setting [6]), 8.4 × 10^7 in assay [2] (setting [6]) and 6.0 × 10^6 in assay [3] (setting [6]).
